Experimental data as given in publication PMC5484485, “In vitro and in vivo effects of kisspeptin antagonists p234, p271, p354, and p356 on GPR54 activation” (PLoS ONE, 2017).
Square brackets hold non-standard residues; d marks the D form. Ends that are not written are not given here.

Experiments:
[1] = target: T1, human GPR54 (Homo sapiens, UniProt Q969F8); assay: Flow cytometric calcium flux assay, response to peptide alone (agonist / intrinsic activity); assay type: cell-based; design: host or cells: rat hematopoietic CHEM1 cells expressing endogenous Galpha15; settings: 10^-13 to 10^-5 M, n = 3; for EC50: CHEM1-GPR54 cells in suspension, Fluo-3 AM, flow cytometry; for intrinsic calcium response: any tested concentration
T1 sequence (Q969F8 whole entry): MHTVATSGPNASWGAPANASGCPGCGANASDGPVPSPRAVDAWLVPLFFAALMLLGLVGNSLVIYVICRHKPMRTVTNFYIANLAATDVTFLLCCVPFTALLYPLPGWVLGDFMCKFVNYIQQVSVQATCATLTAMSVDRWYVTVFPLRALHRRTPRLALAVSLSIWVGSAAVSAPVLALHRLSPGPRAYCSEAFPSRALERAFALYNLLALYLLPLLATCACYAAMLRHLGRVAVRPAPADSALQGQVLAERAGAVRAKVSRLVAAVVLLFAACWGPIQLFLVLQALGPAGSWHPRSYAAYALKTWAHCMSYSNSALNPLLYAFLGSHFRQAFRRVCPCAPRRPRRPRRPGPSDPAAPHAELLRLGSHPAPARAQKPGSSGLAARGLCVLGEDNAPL
Method: In vitro analyses of the effects of kisspeptin and kisspeptin antagonists, were performed using HT[…] cells (rat hematopoietic CHEM1 cells expressing endogenous Gα15 and, stably expressing the human GPR54 receptor (Millipore BV, the Netherlands), CHEM1-GPR54. Cells were counted and suspended in HBSS+++ at a concentration of 5*10^6 cells/ml. To load the cells with the fluorescent dye ester they were incubated in HBSS+++ adjusted to a concentration of 2 μM Fluo-3 AM (Molecular Probes, Life Technologies, the Netherlands) for 1h at 37°C under agitation in the dark. After incubation, the cells were washed by adding HBSS+++ to a volume of 10 ml followed by centrifugation (5 min, 150 x g) to remove excess of Fluo-3AM. […] Thereafter the tube was removed briefly and 25 μl peptide (see below) was added, after which aspiration and analysis continued. For statistical analyses fluorescent data recorded during the time interval 30-60 seconds after initiation of measurement were used. […] Experiments were performed 3 times. Representative flow cytometry results are depicted in Fig 1. […] We then assessed whether these antagonists could compete with KP10 for its receptor. […] For this purpose 25 μl quantities of the antagonists were added to 200 μl of Fluo-3 AM labelled cells (10^6 cells/ml) and incubated for 15 min. […] Peptides p354 and p356 were tested three times with both human and canine KP10; while peptides p234 and p271 were tested three times with human KP10 and once with canine KP10. […] A multivariate general linear model was set up to analyze differences in calcium response between the different concentrations, with Dunnett's test as a post hoc procedure for the antagonists and Bonferroni's test for the agonists.

[2] = target: T1, human GPR54; assay: Flow cytometric calcium flux assay, KP10-induced response after 15 min pre-incubation with antagonist; assay type: cell-based; design: host or cells: rat hematopoietic CHEM1 cells expressing endogenous Galpha15; settings: all concentrations 10^-13 to 10^-5 M; 10^-8 M KP10; 15 min pre-incubation; P = 1.00
Method: In vitro analyses of the effects of kisspeptin and kisspeptin antagonists, were performed using HT[…] cells (rat hematopoietic CHEM1 cells expressing endogenous Gα15 and, stably expressing the human GPR54 receptor (Millipore BV, the Netherlands), CHEM1-GPR54. Cells were counted and suspended in HBSS+++ at a concentration of 5*10^6 cells/ml. To load the cells with the fluorescent dye ester they were incubated in HBSS+++ adjusted to a concentration of 2 μM Fluo-3 AM (Molecular Probes, Life Technologies, the Netherlands) for 1h at 37°C under agitation in the dark. After incubation, the cells were washed by adding HBSS+++ to a volume of 10 ml followed by centrifugation (5 min, 150 x g) to remove excess of Fluo-3AM. […] Thereafter the tube was removed briefly and 25 μl peptide (see below) was added, after which aspiration and analysis continued. For statistical analyses fluorescent data recorded during the time interval 30-60 seconds after initiation of measurement were used. […] We then assessed whether these antagonists could compete with KP10 for its receptor. […] For this purpose 25 μl quantities of the antagonists were added to 200 μl of Fluo-3 AM labelled cells (10^6 cells/ml) and incubated for 15 min. […] Peptides p354 and p356 were tested three times with both human and canine KP10; while peptides p234 and p271 were tested three times with human KP10 and once with canine KP10. To analyze the effects of different concentrations of the KP antagonists on the calcium response due to KP10 addition, the differences in fluorescence before and after KP10 were calculated (the calcium response). The calcium response ratios were calculated as the calcium response of the CHEM1-GPR54 cells pre-incubated with different concentrations of KP antagonist and the control (the calcium response of the cells without KP antagonist). These calcium response ratios were log transformed and used for further analysis by univariate analysis of variance, with the Dunnett's test as post hoc test. The calcium response ratios were set as dependent variables and the different concentrations of the antagonists and the two types of KP10 were used as fixed factors. The residuals were normally distributed.

[3] = target: T1, human GPR54; settings: cited from earlier work
Description: The development of kisspeptin antagonists contributed to an improved understanding of the role of kisspeptin in the reproductive system. Roseweir et al. developed several KP10 analogues and tested their effect on inositol phosphate (IP) release in Chinese hamster ovarian (CHO) cells stably expressing the human GPR54. […] The peptide antagonists are KP10 analogs with substitutions at several positions, which should result in good receptor binding affinity but reduced receptor activation. None of the peptides tested in the present study prevented or inhibited the KP10-stimulated calcium response and thus receptor activation.

[4] = test system: circulating LH / puberty; settings: cited from earlier work
Method: The development of kisspeptin antagonists contributed to an improved understanding of the role of kisspeptin in the reproductive system. Roseweir et al. developed several KP10 analogues and tested their effect on inositol phosphate (IP) release in Chinese hamster ovarian (CHO) cells stably expressing the human GPR54. […] The kisspeptin antagonists were administered intravenously in a dose of 50 μg/kg/h, and had no effect on either the basal plasma LH concentration during the continuous administration or on the KP10-induced LH response. These findings are in line with a previous study in female dogs. […] Adult male rats received an intrape ...

[5] = target: T2, CHEM1-GPR54 cells (Homo sapiens, UniProt Q969F8); assay: Preliminary calcium flux assay with adherent CHEM1-GPR54 cells (unpublished); assay type: cell-based; settings: too few repeats for statistics
T2 construct: host or cells: rat hematopoietic CHEM1 cells expressing endogenous Galpha15
T2 sequence (Q969F8 whole entry): as above

[6] = test system: plasma LH concentration; assay: Plasma LH in anestrous Beagle bitches during antagonist infusion and after cKP10 bolus; assay type: in vivo, dog; settings: n = 6
Description: Thirteen adult anestrous Beagle bitches were used for this study. Six dogs with a median age of 89 months (range 43–122 months) were used as control group, receiving cKP10 without an antagonist. Eight dogs with a median age of 52 months (range 31–116 months) were used for the antagonist experiments. One dog was first used in the control group and 12 months later for the antagonist experiments. Of the eight dogs used for the antagonist experiments, four received p271, p354, and p356. In two of the eight dogs both p354 and p356 were tested, while in the remaining two dogs only p271 was tested, in order to test every antagonist in 6 dogs. The time between testing of different kisspeptin antagonists was at least 5 days (range 5–15 days) to ensure that there were no peptide residues. Kisspeptin antagonist p234 per se was not tested in vivo because p271 is in fact p234 with a penetratin tag to enhance passage across the blood-brain barrier, as has been described for use with peripheral administration.
Kisspeptin antagonists (50 μg/kg/h) were administered continuously for three hours via a catheter in the cephalic vein. Two hours after the start of the infusion, a single bolus of cKP10 (0.5 μg/kg) was administered intravenously. Blood samples were collected from the jugular vein by venipuncture at -40 min and 0 min before the antagonist infusion, and then every 30 min for two hours. After the administration of cKP10, blood samples were collected at 10, 20, 40, and 60 min (i.e., 130, 140, 160, and 180 min after the start of the antagonist infusion).
As a control, KP stimulation tests (without the administration of a kisspeptin antagonist) were performed in six dogs. Blood samples were collected from the jugular vein by venipuncture at -40 min and 0 min before, and then at 10, 20, 40, and 60 min after administration of cKP10 (0.5 μg/kg). Plasma LH concentrations were measured in all blood samples.
Plasma LH concentrations were measured with a heterologous radioimmunoassay validated for the dog, as described previously. The intra- and interassay CVs for values above 0.5 μg/l were 2.3 and 10.5%, respectively, and the limit of quantitation was 0.3 μg/l.
In both groups of dogs (experimental and control), the basal plasma LH concentration was calculated for each dog as the mean of the values at –40 and 0 min before cKP10 or antagonist administration. All LH values that exceeded the mean of all basal samples plus 3 SD were attributed to pulsatile secretion and were treated as outliers and excluded from statistical analysis. Log transformation of plasma LH concentrations was used because data were not normally distributed. A linear mixed model was used to analyze differences in plasma LH concentrations before and after KP10, with or without a kisspeptin antagonist (group effects: p271, p354, p356, and controls), with Bonferroni correction. P<0.05 was considered significant.

[7] = test system: kisspeptin receptor; settings: ref unpublished data; cited from earlier work
Method: The following peptides were tested for antagonistic properties on the kisspeptin receptor: p234 ((D-Ala)-Asn-Trp-Asn-Gly-Phe-Gly-(D-Trp)-Arg-Phe-NH2), p271 (Arg-Arg-Met-Lys-Trp-Lys-Lys-Tyr-(D-Ala)-Asn-Trp-Asn-Gly-Phe-Gly-(D-Trp)-Arg-Phe-NH2), p354 ((D-Ala)-Tyr-Asn-Phe-Asn-Gly-Phe-Gly-(D-Trp)-Arg-Phe-NH2), and p356 ((D-Ala)-Tyr-Asn-Trp-Asn-Gly-Phe-Gly-(D-Trp)-Lys-Phe-NH2). Peptide 354 and p356 are next generation analogs refining p234.

[8] = antagonist 50 μg/kg/h iv, cKP10 0.5 μg/kg iv

CC(C)C[C@H](NC(=O)CNC(=O)[C@H](Cc1ccccc1)NC(=O)[C@H](CO)NC(=O)[C@H](CC(N)=O)NC(=O)[C@H](Cc1c[nH]c2ccccc12)NC(=O)[C@H](CC(N)=O)NC(=O)[C@@H](N)Cc1ccc(O)cc1)C(=O)N[C@@H](CCCNC(=N)N)C(=O)N[C@@H](Cc1ccccc1)C(N)=O [hKP10, Tyr-Asn-Trp-Asn-Ser-Phe-Gly-Leu-Arg-Phe-NH2, reference compound]
EC50 [1]: 1.2 nM

YNWNVFGLRY-NH2 [cKP10, Tyr-Asn-Trp-Asn-Val-Phe-Gly-Leu-Arg-Tyr-NH2, reference compound]
EC50 [1]: 8 nM

[dA]NWNGFG[dW]RF-NH2 [p234, kisspeptin antagonist, KP10 analog]
intrinsic calcium response [1]: no significant intrinsic calcium response
difference in calcium response ratio between controls and antagonist [2]: not significant
inhibitory effect on IP release in vitro, rank among KP10 analogues ([3]; CHO cells stably expressing human GPR54): most potent inhibitory effect
inhibition of KP10-induced inositol phosphate (IP) production ([3]; CHO cells that express GPR54): 93%
effect of antagonist alone on basal plasma LH ([4]; intact rats and mice): did not lower the basal plasma LH concentration
effect on circulating LH when co-administrated with KP10 ([4]; intracerebroventricular): prevented an increase in the circulating LH concentration
effect on vaginal opening (indicator of puberty) ([4]; rats, intracerebroventricular): delayed vaginal opening
inhibition of KP10-induced calcium response, adherent cells [5]: could not be inhibited

[dA]YNFNGFG[dW]RF-NH2 [p354]
intrinsic calcium response [1]: no significant intrinsic calcium response
difference in calcium response ratio between controls and antagonist [2]: not significant
Median (and range) plasma LH, t = 30 ([6]; 30 min of antagonist infusion 50 μg/kg/h iv): 3.7 (2.1–13.1) μg/L
Median (and range) plasma LH, t = 60 ([6]; 60 min of antagonist infusion 50 μg/kg/h iv): 3.2 (2.2–7.2) μg/L
Median (and range) plasma LH, t = 120 ([6]; 120 min of antagonist infusion 50 μg/kg/h iv, before cKP10): 5.2 (2.6–15.7) μg/L
median maximum increment in plasma LH concentration after cKP10 during antagonist administration [6, 8]: 8.1 µg/L
range of maximum increment in plasma LH concentration after cKP10 during antagonist administration [6, 8]: 5.0 to 12.5 µg/L
Median (and range) plasma LH, t = 130 / t = 10* ([6]; antagonist infusion 50 μg/kg/h iv, 10 min after cKP10 0.5 μg/kg iv): 13.5 (8.4–20.3) μg/L
Median (and range) plasma LH, t = 140 / t = 20* ([6]; antagonist infusion 50 μg/kg/h iv, 20 min after cKP10 0.5 μg/kg iv): 10.0 (5.5–13.0) μg/L
Median (and range) plasma LH, t = 160 / t = 40* ([6]; antagonist infusion 50 μg/kg/h iv, 40 min after cKP10 0.5 μg/kg iv): 6.4 (4.7–9.1) μg/L
Median (and range) plasma LH, t = 180 / t = 60* ([6]; antagonist infusion 50 μg/kg/h iv, 60 min after cKP10 0.5 μg/kg iv): 4.7 (3.7–9.9) μg/L
Median (and range) plasma LH, Basal ([6]; before antagonist infusion (mean of -40 and 0 min per dog)): 4.2 (2.8–6.7) μg/L
effect on basal plasma LH concentration ([6]; continuous iv 50 μg/kg/h, anestrous bitches): did not cause significant alterations
binding and inhibition of kisspeptin action on inositol generation, potency range [7]: nanomolar range
